For six compounds, IC50 results are on record in ChEMBL document CHEMBL1212808, “The p110 delta structure: mechanisms for selectivity and potency of new PI(3)K inhibitors” (Nat Chem Biol, 2010).

The target in assay [1] is Phosphatidylinositol 4,5-bisphosphate 3-kinase catalytic subunit gamma isoform (Homo sapiens, UniProt P48736). The assay can be described thus: Inhibition of p110gamma.
The target in assay [2] is Phosphatidylinositol 4,5-bisphosphate 3-kinase catalytic subunit alpha isoform (Homo sapiens, UniProt P42336). The experiment in a line: Inhibition of p110alpha.
Chain of Phosphatidylinositol 4,5-bisphosphate 3-kinase catalytic subunit alpha isoform (P42336 whole entry, canonical isoform): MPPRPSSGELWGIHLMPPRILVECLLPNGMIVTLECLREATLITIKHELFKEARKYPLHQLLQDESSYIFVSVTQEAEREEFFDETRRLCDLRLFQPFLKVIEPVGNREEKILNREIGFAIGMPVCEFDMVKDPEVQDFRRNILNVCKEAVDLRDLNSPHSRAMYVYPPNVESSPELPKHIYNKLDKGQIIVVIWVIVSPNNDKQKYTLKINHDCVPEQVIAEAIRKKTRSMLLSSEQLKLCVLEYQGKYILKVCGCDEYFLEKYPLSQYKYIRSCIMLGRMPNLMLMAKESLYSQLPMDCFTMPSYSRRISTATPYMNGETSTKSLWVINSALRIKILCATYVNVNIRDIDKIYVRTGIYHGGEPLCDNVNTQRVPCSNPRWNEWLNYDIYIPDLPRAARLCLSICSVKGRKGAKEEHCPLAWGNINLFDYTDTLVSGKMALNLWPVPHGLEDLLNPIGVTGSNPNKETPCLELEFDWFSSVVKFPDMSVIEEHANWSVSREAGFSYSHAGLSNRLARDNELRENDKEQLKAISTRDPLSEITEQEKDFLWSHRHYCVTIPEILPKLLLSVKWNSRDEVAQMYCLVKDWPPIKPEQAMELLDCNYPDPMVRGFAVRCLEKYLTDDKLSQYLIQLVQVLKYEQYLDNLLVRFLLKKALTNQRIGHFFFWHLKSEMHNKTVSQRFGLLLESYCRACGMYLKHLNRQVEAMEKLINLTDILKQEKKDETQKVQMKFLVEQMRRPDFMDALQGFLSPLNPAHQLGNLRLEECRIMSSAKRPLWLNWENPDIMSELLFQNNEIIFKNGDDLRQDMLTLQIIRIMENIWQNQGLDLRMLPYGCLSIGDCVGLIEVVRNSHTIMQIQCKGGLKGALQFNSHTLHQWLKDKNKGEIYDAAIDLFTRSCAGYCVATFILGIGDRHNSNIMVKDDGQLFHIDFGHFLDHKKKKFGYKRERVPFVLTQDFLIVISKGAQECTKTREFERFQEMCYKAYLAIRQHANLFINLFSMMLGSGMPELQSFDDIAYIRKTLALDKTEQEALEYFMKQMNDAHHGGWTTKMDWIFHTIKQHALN
The target in assay [3] is Phosphatidylinositol 4,5-bisphosphate 3-kinase catalytic subunit beta isoform (Homo sapiens, UniProt P42338). The assay can be described thus: Inhibition of p110beta.
Chain of Phosphatidylinositol 4,5-bisphosphate 3-kinase catalytic subunit beta isoform (P42338 whole entry, canonical isoform): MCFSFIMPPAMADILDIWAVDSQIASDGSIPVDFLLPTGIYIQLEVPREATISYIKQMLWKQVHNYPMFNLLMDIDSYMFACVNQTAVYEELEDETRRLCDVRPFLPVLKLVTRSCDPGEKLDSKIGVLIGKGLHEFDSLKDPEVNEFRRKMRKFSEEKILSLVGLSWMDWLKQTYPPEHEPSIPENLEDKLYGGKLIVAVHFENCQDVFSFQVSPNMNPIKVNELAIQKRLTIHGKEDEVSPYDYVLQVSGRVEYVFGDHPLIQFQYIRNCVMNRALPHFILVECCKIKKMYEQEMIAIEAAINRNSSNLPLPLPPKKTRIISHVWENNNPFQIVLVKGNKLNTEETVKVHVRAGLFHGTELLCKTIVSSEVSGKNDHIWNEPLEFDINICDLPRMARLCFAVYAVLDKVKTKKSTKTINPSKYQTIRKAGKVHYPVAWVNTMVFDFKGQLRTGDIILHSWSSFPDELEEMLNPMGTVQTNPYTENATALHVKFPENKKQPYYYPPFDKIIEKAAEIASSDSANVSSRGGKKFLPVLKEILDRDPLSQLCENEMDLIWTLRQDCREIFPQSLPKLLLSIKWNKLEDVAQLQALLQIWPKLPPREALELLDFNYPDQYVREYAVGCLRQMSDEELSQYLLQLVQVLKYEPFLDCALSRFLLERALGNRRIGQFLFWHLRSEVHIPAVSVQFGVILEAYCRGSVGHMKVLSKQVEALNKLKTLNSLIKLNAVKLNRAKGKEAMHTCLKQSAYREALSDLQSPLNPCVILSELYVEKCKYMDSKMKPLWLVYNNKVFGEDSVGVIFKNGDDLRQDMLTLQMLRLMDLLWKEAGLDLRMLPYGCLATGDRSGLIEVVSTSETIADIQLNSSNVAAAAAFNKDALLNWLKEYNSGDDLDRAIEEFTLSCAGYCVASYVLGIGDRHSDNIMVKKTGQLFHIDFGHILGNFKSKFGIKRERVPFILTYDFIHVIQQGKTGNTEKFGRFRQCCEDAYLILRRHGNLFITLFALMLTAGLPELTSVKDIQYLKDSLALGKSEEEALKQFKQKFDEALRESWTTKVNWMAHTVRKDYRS

Chain of Phosphatidylinositol 4,5-bisphosphate 3-kinase catalytic subunit gamma isoform (P48736 whole entry, canonical isoform): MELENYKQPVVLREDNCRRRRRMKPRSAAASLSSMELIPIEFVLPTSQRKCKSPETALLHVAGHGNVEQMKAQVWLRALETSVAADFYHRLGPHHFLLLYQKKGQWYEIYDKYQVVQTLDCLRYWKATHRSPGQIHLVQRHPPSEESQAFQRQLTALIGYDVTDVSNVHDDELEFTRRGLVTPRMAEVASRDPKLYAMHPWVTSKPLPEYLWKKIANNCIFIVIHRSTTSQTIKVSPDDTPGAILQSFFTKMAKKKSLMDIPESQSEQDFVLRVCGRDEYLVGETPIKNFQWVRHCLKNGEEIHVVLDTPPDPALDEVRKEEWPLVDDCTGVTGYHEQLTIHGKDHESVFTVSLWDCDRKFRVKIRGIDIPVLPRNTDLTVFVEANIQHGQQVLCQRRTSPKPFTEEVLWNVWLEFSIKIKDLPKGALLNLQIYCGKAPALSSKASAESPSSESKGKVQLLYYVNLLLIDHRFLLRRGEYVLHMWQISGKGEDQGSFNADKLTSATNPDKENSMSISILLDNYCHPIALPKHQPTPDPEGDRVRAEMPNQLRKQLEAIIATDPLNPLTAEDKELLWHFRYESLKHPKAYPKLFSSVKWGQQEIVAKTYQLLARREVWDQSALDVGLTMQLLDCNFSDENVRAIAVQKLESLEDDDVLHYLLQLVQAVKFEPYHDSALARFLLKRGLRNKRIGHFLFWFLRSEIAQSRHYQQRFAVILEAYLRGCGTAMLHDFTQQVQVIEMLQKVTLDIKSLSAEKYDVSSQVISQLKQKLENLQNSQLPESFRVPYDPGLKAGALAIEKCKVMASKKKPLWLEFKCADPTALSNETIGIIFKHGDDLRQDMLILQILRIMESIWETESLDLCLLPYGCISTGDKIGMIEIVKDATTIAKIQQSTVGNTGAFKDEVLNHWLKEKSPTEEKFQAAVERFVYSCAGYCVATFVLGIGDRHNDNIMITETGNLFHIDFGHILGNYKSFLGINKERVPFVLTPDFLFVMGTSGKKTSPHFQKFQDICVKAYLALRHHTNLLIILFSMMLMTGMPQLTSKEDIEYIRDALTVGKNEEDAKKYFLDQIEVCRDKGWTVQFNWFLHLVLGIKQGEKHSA

Usually IC50 stands for the concentration at which inhibition is half-maximal. A higher IC50 goes with a need for much substance. With `CC(=O)Nc1nc2ccc(-c3nn(Cc4cc5ccccc5nc4N4CCN(C)CC4)c4ncnc(N)c34)cc2s1`, the IC50 in assay [1] came out at 185 nM; in assay [2] it was 788 nM; in assay [3], 23 nM.
Take `CC(C)n1nc(C#Cc2cccc(O)c2)c2c(N)ncnc21`: the results for the IC50 in assay [1], in assay [2] and in assay [3] were 69 nM, 34 nM and 316 nM, respectively.
Take `COc1cc(Nc2nc3ccccc3nc2NS(=O)(=O)c2ccc(F)cc2)cc(OC)c1`: the IC50 in assay [1] is 10000 nM; in assay [2], 400 nM; in assay [3], 10000 nM.
For the compound `CC(C)n1nc(C#Cc2cccnc2)c2c(N)ncnc21`, the figures for the IC50 in assay [1], in assay [2] and in assay [3] were 113 nM, 53 nM and 664 nM, respectively.
With `COc1ccccc1-n1c(SCC(=O)Nc2ccc3nccnc3c2)nc2c(c1=O)CCCC2`, the IC50 in assay [1] came out at 20000 nM; in assay [2], 3440 nM; in assay [3], 4230 nM.
As to `CN1CCN(c2nc3ccccc3cc2Cn2nc(-c3ccc4nc(N)sc4c3)c3c(N)ncnc32)CC1`, the 50% inhibitory concentration (IC50) was determined as 4 nM in assay [1], 137 nM in assay [2] and 9 nM in assay [3].
